The record followed here is paper PMC9260667, “Thioredoxin Reductase Inhibitors as Potential Antitumors: Mercury Compounds Efficacy in Glioma Cells” (Frontiers in Molecular Biosciences, 2022).

Assay [1] addresses T1, Trx (Mus musculus, UniProt P97493).
T1 construct: These lysates were compared to a control group and used to quantify TrxR and Trx activity and expression; These fractions were used to quantify TrxR and Trx activity and expression; endogenous in cells; host or cells: GL261 mouse glioma cells (whole lysate, cytosolic and mitochondrial fractions)
It is filed as cell-based. The following applies: mitochondria, GL261 exposed 24 h. The method, then:
(§1) Total cell lysates were prepared according to previous protocols ([Branco et al., 2014]). 1 × 10^6 cells were plated in […] culture dishes incubated at 37°C until reaching 70–80% confluence. At this point, the culture medium was refreshed and TmHg and EtHg (0.5; 1; 2 µM) were added and incubated at 37°C for 24 h, after which cells were collected by trypsinization and washed with PBS 1x. Subsequently, the pellet was resuspended in lysis buffer (25 mM TrisCl, pH 7.5; 100 mM NaCl; 2.5 mM EDTA; 2.5 mM EGTA; 20 mM NaF, 1 mM sodium orthovanadate, 20 mM sodium pyrophosphate; 20 mM of sodium β-glycerophosphate, 0.5% Triton X-100, and 1 tablet of protease inhibitor cocktail per 10 ml; Roche) vortexed and frozen at −20°C. These lysates were compared to a control group and used to quantify TrxR and Trx activity and expression as described below.
(§2) To obtain the mitochondrial and cytosolic fractions, after exposure to Hg compounds cells were washed and suspended in mitochondrial isolation buffer (210 mM mannitol, 70 mM sucrose, 1 mM EDTA, 10 mM Hepes–NaOH, and pH 7.5), containing protease inhibitor cocktail (Roche). Cells were disrupted with a Teflon pestle and then centrifuged at 600 g for 10 min at 4°C. The resulting nuclear pellets were discarded, and the supernatant was further centrifuged at 13,000 g and 4°C for 15 min, to obtain the mitochondrial pellets and the supernatant soluble fraction. Mitochondrial pellets were treated with cell lysis buffer as described above for whole-cell lysates and the supernatant fraction was further centrifuged at 100,000 g and 4°C for 1 h, to produce the cytosolic fraction ([Branco et al., 2014]). These fractions were used to quantify TrxR and Trx activity and expression as described below.
(§3) The enzymatic activity of TrxR and Trx was determined according to the insulin end-point assay described by [Arnér and Holmgren (2000)] with modifications ([Branco et al., 2014]).
(§4) In parallel, control wells were prepared to contain the same reagents previously mentioned apart from Trx. After the incubation period, 250 µL of a 1 mM DTNB solution in 6 M guanidine-HCL (pH 8.0) was added to wells, and absorbance was measured at 412 nm in a microplate reader (Zenyth 3100, Anthos Labtec Instruments). […] The same procedure was done for the determination of Trx activity, but the samples were incubated with 100 nM of recombinant rat TrxR (IMCO Corp, Sweden) instead of Trx ([Branco et al., 2014]).

Assay [2] deals with T2, Trx (Mus musculus, UniProt P10639).
T2 construct: These lysates were compared to a control group and used to quantify TrxR and Trx activity and expression; These fractions were used to quantify TrxR and Trx activity and expression; endogenous in cells; host or cells: GL261 mouse glioma cells (whole lysate, cytosolic and mitochondrial fractions)
T2 sequence (P10639 whole entry): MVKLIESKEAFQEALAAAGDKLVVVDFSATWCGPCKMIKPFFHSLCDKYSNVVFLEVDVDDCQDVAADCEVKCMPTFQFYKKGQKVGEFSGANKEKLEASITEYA
In kind it is cell-based. Conditions: cytosol, GL261 exposed 24 h. As for the experimental part:
as §1, §2, §3, §4

T1 sequence (P97493 60-166): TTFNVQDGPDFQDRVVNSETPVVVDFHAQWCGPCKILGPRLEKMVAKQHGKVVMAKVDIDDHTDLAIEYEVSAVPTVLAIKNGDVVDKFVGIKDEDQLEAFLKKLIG

As to `C[CH2][Hg][S]c1ccccc1C(=O)[O-].[Na+]` [TmHg, thimerosal], the IC50 against Trx [1] was found to be 1600 nM; on Trx [2], 1200 nM.
